Holding throughout (assay type): functional, cell-based
Assay [1] concerns MCF7. The assay is described as follows: Cytotoxicity against human MCF7 cells assessed as inhibition of cell growth.
The next assay relates to SGC-7901. The assay is described as follows: Cytotoxicity against human SGC7901 cells assessed as inhibition of cell growth after 48 hrs by MTT assay. Particulars: SGC-7901, 48 h.
The subject of assay [2] is MCF7. The assay is described as follows: Cytotoxicity against human MCF7 cells assessed as inhibition of cell growth after 48 hrs by MTT assay. Particulars: MCF7, 48 h.
The test system of the next assay is A549. The assay can be described thus: Cytotoxicity against human A549 cells assessed as inhibition of cell growth after 48 hrs by MTT assay. As to conditions: A549, 48 h.
In another assay the test system is SMMC-7721. The assay is described as follows: Cytotoxicity against human SMMC7721 cells assessed as inhibition of cell growth after 48 hrs by MTT assay. Particulars: SMMC-7721, 48 h.
The next assay relates to HeLa. The assay can be described thus: Cytotoxicity against human HeLa cells assessed as inhibition of cell growth by MTT assay.

As to `OCc1ccc2c(c1)c1ccccc1n2Cc1ccc(Cl)nc1`, in the assay with MCF7 [1], the IC50 was in the range of 20 to 30 µM.
Consider `COc1ccc2c3ccnc(C)c3n(C)c2c1`, for which the half-inhibitory concentration (IC50) in the assay on SGC-7901 was 9.67 µM; in the assay with MCF7 [2] it was > 50 µM; in the assay with A549, 4.97 µM; with SMMC-7721 it was 43.6 µM.
`COc1ccc2c3ccnc(C)c3n(Cc3ccc(C)cc3)c2c1`: the IC50 in the assay on SGC-7901 was 5.29 µM; with MCF7 [2] it was > 50 µM; with A549, 3.89 µM; with SMMC-7721, 21.3 µM.
`COc1ccc2c3ccnc(C)c3n(CCCCCCBr)c2c1`: the IC50 was found to be 6.94 µM in the assay on SGC-7901, 0.45 µM with MCF7 [2], 0.87 µM in the assay with A549 and 3.79 µM in the assay with SMMC-7721.
On to `COc1ccc2c3ccnc(C)c3n(CCCCCBr)c2c1`, for which the IC50 with SGC-7901 came to 9.34 µM; in the assay with MCF7 [2], 0.76 µM; in the assay on A549, 4.8 µM; in the assay with SMMC-7721, 6.49 µM.
Consider `COc1ccc2c3ccnc(C)c3n(Cc3ccc(F)cc3)c2c1`, for which the IC50 is 7.21 µM in the assay with SGC-7901, > 50 µM in the assay on MCF7 [2], 8.73 µM in the assay with A549 and > 50 µM in the assay on SMMC-7721.
On to `COc1ccc2c3ccnc(C)c3n(Cc3ccccc3C)c2c1`, for which the half-inhibitory concentration (IC50) in the assay on SGC-7901 was 17.2 µM; in the assay with MCF7 [2], > 50 µM; in the assay with A549 it was 8.34 µM; in the assay with SMMC-7721, 39.5 µM.
For `COc1ccc2c3ccnc(C)c3n(CCCc3ccccc3)c2c1`, the concentration for half-maximal inhibition (IC50) with HeLa turned out to be 24 µM.
Turning to `COc1ccc2c3ccnc(C)c3n(CCCCBr)c2c1`, the IC50 turned out to be 10.6 µM in the assay with SGC-7901, 0.85 µM in the assay on MCF7 [2], 12.2 µM in the assay on A549 and 8.34 µM in the assay with SMMC-7721.
In the same order, the values of `COc1ccc2c3ccnc(C)c3n(C(=O)c3ccc(C)cc3)c2c1` are 2.88 µM, > 50 µM, 1.33 µM and > 50 µM.
Take `CCCCCCCCCCCC(=O)n1c2cc(OC)ccc2c2ccnc(C)c21`: the IC50 with SGC-7901 was 8.76 µM; with MCF7 [2], > 50 µM; with A549 it was 14.6 µM; in the assay on SMMC-7721 it was 49.1 µM.
`COc1ccc2c3ccnc(C)c3n(C(C)=O)c2c1`: the concentration for half-maximal inhibition (IC50) in the assay with SGC-7901 was 6.39 µM; with MCF7 [2], > 50 µM; in the assay with A549, 1.27 µM; in the assay with SMMC-7721, > 50 µM.
As to `COc1ccc2c(c1)[nH]c1c(C)nccc12` [HARMINE], the IC50 came out at 40.8 µM with SGC-7901, 68.3 µM with MCF7 [2], 42.2 µM in the assay on A549 and 59.4 µM in the assay with SMMC-7721.
The matching figures for `COc1ccc2c3ccnc(C)c3n(Cc3ccccc3F)c2c1`: 43.6 µM, > 50 µM, 5.67 µM and > 50 µM.

The values are drawn from ChEMBL document CHEMBL4425146, “Synthesis and biological evaluation of N(9)-substituted harmine derivatives as potential anticancer agents” (Bioorg Med Chem Lett, 2016).
